Key:
Assay in all cases: ICKP protein kinase panel screening
Type in all cases: biochemical
Details in all cases: duplicate assays, read-out: mean % residual activity
[1] = target: BTK (Homo sapiens (Human), UniProt Q06187)
Description: (§1) FIG. 3 illustrates the human kinome. Compound 69 was evaluated at the International Center For Kinase Profiling (ICKP, Dundee, Scotland) toward a panel of 50 protein kinases that provide a representative sampling of the human kinome. The results were expressed as the mean percentage of residual activity at 10 μM concentration (duplicate assays). Small disks: ≥65%, larger disk: 19%. The black square indicates the kinome region containing protein kinases evaluated in a second screening (FIG. 4, Table 4). The tree was generated using the Kinome Render software, and the illustration reproduced courtesy of Cell Signaling Technology, Inc. (www.cellsignal.com) Chartier et al PeerJ 2013, 1:e126.
(§2) Results are expressed as the mean percentage of residual activity at 10 μM (Table 3) or 1 μM (Table 4). They are illustrated on FIGS. 3 and 4.
(§3) Studies were undertaken to identify the possible biological target(s) of compound 69. The activation in neurons of PK such as PKCγ, ERK or p38 MAPK can contribute to pain hypersensitivity. Therefore, it was decided to screen compound 69 toward a panel of 50 PKs that provide a representative sampling of the human kinome (FIG. 3, Table 3) (Biochem. J. 2007, 408, 297-315). In this panel, p38α MAPK was identified as the privileged target, with 19% of kinase residual activity at 10 μM compound concentration.

[2] = target: CAMK1 (Homo sapiens (Human), UniProt Q14012)
Description: as §1, §2, §3

[3] = target: CAMKKb (Homo sapiens (Human), UniProt Q96RR4)
Description: as §1, §2, §3

[4] = target: CHK2 (Homo sapiens (Human), UniProt O96017)
Description: as §1, §2, §3

[5] = target: DYRK1A (Homo sapiens (Human), UniProt Q13627)
Description: as §1, §2, §3

[6] = target: EPH-A2 (Homo sapiens (Human), UniProt P29317)
Description: as §1, §2, §3

[7] = target: GSK3b (Homo sapiens (Human), UniProt P49841)
Description: as §1, §2, §3

[8] = target: HER4 (Homo sapiens (Human), UniProt Q15303)
Description: as §1, §2, §3

[9] = target: HIPK2 (Homo sapiens (Human), UniProt Q9H2X6)
Description: as §1, §2, §3

[10] = target: IGF-1R (Homo sapiens (Human), UniProt P08069)
Description: as §1, §2, §3

[11] = target: IRAK4 (Homo sapiens (Human), UniProt Q9NWZ3)
Description: as §1, §2, §3

[12] = target: LKB1 (Homo sapiens (Human), UniProt Q15831)
Description: as §1, §2, §3

[13] = target: Lck (Homo sapiens (Human), UniProt P06239)
Description: as §1, §2, §3

[14] = target: MARK3 (Homo sapiens (Human), UniProt P27448)
Description: as §1, §2, §3

[15] = target: MKK1 (Homo sapiens (Human), UniProt Q02750)
Description: as §1, §2, §3

[16] = target: MLK3 (Homo sapiens (Human), UniProt Q16584)
Description: as §1, §2, §3

[17] = target: MSK1 (Homo sapiens (Human), UniProt O75582)
Description: as §1, §2, §3

[18] = target: MST2 (Homo sapiens (Human), UniProt Q13188)
Description: as §1, §2, §3

[19] = target: NEK6 (Homo sapiens (Human), UniProt Q9HC98)
Description: as §1, §2, §3

[20] = target: PAK4 (Homo sapiens (Human), UniProt O96013)
Description: as §1, §2, §3

[21] = target: PDK1 (Homo sapiens (Human), UniProt O15530)
Description: as §1, §2, §3

[22] = target: PIM1 (Homo sapiens (Human), UniProt P11309)
Description: as §1, §2, §3

[23] = target: PKA (Homo sapiens (Human), UniProt P17612)
Description: as §1, §2, §3

[24] = target: PKD1 (Homo sapiens (Human), UniProt Q15139)
Description: as §1, §2, §3

[25] = target: PRK2 (Homo sapiens (Human), UniProt Q16513)
Description: as §1, §2, §3

[26] = target: RIPK2 (Homo sapiens (Human), UniProt O43353)
Description: as §1, §2, §3

[27] = target: RSK1 (Homo sapiens (Human), UniProt Q15418)
Description: as §1, §2, §3

[28] = target: S6K1 (Homo sapiens (Human), UniProt P23443)
Description: as §1, §2, §3

[29] = target: SRPK1 (Homo sapiens (Human), UniProt Q96SB4)
Description: as §1, §2, §3

[30] = target: SYK (Homo sapiens (Human), UniProt P43405)
Description: as §1, §2, §3

[31] = target: SmMLCK (Homo sapiens (Human), UniProt Q15746)
Description: as §1, §2, §3

[32] = target: Src (Homo sapiens (Human), UniProt P12931)
Description: as §1, §2, §3

[33] = target: TAK1 (Homo sapiens (Human), UniProt O43318)
Description: as §1, §2, §3

[34] = target: TBK1 (Homo sapiens (Human), UniProt Q9UHD2)
Description: as §1, §2, §3

[35] = target: VEG-FR (Homo sapiens (Human), UniProt P17948)
Description: as §1, §2, §3

EPH-A2, sequence (P29317 24-976): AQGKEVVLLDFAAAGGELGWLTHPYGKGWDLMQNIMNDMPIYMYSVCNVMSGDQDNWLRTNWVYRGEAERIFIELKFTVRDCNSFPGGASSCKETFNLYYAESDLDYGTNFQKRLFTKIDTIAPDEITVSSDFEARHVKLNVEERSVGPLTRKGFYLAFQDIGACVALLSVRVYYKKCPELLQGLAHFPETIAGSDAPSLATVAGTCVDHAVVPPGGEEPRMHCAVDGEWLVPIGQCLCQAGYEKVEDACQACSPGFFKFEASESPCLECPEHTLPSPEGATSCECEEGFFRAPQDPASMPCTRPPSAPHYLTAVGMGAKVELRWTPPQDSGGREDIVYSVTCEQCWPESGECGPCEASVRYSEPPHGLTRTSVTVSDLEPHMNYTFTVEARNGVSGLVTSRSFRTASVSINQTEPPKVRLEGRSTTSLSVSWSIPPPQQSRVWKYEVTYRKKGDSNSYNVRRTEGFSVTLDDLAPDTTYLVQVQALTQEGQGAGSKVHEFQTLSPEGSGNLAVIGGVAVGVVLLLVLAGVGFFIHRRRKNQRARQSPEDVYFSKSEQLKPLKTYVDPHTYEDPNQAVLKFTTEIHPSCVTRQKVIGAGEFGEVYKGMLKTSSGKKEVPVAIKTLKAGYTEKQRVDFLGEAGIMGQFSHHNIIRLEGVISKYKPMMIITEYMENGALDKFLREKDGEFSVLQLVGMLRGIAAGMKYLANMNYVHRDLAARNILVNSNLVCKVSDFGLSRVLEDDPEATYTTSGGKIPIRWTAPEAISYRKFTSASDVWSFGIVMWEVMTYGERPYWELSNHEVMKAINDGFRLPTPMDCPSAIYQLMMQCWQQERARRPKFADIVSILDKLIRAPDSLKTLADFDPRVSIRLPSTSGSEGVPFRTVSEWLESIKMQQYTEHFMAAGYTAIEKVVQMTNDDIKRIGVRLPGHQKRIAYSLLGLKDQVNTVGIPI
IRAK4, sequence (Q9NWZ3 whole entry): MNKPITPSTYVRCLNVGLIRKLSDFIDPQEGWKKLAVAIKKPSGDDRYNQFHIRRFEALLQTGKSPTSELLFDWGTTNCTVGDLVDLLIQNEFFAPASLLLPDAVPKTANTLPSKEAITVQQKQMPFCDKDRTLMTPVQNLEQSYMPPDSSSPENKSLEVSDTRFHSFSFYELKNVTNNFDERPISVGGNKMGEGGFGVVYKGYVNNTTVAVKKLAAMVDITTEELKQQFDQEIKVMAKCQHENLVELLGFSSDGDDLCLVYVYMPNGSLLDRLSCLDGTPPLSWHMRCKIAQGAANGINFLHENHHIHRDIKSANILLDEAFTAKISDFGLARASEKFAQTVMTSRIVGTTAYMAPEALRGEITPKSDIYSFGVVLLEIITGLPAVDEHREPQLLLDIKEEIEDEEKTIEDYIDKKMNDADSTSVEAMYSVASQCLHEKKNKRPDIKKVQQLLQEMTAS
VEG-FR, sequence (P17948 27-1338): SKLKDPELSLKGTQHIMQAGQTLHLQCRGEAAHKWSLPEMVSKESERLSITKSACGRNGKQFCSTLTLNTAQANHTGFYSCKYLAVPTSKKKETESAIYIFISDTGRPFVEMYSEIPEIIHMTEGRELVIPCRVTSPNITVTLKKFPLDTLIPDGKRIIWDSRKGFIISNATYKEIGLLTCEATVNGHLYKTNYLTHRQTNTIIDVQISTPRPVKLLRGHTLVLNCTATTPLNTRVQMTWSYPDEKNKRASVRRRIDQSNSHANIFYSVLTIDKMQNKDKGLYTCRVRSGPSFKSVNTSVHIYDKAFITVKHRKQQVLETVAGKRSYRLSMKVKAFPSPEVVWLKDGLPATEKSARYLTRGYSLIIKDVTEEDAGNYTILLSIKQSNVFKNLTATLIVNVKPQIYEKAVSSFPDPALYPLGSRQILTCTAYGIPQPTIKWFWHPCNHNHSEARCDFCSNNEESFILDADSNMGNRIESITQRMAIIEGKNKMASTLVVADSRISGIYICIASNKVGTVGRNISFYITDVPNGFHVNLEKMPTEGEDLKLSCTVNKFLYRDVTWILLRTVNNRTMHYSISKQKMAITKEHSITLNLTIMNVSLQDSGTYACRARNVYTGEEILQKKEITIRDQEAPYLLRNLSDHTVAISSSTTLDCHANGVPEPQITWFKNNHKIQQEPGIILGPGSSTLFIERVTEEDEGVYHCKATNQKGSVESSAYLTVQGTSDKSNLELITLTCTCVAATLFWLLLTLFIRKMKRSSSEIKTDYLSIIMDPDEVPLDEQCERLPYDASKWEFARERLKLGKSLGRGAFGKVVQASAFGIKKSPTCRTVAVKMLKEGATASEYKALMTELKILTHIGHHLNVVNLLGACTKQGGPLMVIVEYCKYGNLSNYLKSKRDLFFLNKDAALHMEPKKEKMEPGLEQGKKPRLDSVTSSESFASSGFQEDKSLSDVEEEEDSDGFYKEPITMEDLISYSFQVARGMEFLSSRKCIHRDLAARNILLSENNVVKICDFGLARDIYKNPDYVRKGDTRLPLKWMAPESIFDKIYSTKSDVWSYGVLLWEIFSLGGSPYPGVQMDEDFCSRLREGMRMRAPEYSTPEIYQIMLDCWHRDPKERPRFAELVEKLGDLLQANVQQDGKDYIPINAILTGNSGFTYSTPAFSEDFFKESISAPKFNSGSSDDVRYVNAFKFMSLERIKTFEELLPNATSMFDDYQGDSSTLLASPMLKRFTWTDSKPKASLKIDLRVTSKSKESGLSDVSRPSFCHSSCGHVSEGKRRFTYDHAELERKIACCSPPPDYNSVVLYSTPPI
HIPK2, sequence (Q9H2X6 whole entry): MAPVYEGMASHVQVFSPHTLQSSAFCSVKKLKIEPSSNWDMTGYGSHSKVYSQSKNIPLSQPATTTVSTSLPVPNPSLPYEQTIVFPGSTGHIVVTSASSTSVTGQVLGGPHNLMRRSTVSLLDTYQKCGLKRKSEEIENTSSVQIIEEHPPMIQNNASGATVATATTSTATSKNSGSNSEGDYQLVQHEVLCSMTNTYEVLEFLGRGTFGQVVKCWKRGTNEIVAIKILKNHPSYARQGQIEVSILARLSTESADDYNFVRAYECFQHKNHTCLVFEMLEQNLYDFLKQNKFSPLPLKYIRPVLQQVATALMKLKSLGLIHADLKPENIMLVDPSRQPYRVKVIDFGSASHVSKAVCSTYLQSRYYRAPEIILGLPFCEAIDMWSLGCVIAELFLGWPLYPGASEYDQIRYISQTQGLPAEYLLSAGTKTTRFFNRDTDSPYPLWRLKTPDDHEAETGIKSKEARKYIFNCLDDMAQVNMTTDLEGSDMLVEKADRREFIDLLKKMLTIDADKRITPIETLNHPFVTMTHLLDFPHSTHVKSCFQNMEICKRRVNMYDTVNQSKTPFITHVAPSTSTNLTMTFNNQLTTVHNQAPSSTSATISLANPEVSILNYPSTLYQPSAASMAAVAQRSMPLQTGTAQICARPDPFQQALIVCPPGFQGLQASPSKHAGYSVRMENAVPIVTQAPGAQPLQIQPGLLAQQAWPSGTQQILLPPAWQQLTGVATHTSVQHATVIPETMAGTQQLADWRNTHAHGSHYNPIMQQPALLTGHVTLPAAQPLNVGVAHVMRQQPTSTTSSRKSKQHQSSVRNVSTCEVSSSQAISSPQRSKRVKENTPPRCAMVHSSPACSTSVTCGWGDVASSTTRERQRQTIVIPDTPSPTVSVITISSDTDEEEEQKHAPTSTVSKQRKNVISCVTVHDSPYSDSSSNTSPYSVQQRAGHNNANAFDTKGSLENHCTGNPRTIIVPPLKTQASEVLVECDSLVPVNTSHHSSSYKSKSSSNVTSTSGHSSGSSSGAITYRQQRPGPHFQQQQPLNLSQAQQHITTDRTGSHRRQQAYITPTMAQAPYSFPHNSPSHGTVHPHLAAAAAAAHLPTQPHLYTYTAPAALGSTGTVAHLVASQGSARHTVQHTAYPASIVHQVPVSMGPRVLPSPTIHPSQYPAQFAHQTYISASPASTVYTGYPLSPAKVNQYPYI
PDK1, sequence (O15530 whole entry): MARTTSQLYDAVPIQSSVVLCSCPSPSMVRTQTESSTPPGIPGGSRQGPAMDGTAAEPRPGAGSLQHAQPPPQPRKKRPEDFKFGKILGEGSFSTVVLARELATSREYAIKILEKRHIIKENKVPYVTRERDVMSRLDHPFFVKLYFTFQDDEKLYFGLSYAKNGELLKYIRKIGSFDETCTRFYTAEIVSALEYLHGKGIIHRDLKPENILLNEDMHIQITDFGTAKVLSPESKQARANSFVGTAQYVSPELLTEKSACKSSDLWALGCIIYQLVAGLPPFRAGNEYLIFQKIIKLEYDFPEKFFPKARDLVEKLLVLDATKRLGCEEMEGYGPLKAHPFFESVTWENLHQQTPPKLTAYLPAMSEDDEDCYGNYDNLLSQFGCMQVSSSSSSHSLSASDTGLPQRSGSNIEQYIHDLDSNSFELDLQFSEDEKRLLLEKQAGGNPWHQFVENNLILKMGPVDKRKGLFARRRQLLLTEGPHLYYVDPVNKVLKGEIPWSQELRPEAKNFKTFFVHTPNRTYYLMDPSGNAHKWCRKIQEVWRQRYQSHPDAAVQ
CHK2, sequence (O96017 whole entry): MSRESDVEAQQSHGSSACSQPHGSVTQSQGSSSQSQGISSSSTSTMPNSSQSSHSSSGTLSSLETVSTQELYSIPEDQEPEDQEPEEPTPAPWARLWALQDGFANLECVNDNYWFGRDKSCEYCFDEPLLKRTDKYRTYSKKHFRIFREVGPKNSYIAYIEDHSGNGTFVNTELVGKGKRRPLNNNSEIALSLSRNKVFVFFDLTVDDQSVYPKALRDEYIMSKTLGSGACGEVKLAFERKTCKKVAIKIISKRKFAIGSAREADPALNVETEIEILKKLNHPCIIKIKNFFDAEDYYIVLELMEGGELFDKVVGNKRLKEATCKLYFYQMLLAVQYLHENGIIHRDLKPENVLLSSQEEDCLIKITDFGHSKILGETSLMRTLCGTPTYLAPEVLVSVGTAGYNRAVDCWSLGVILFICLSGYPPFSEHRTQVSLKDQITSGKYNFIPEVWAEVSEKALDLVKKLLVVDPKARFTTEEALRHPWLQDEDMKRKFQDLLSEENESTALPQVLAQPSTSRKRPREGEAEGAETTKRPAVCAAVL

For O=c1[nH]cc(Nc2ccccc2)cc1-c1ccccc1Br [Compound 69, 3-(2-Bromophenyl)-5-(phenylamino)pyridin-2(1H)-one], the remaining activity at 10 µM [1] was 94%, the remaining activity at 10 µM [2] was 96% and the remaining activity at 10 µM [3] was 95%. The remaining activity at 10 µM [4] was 101%, the remaining activity at 10 µM [5] was 66% and the remaining activity at 10 µM [6] was 109%. It also gave a remaining activity at 10 µM [7] of 105%, a remaining activity at 10 µM [8] of 98% and a remaining activity at 10 µM [9] of 96%. For the same compound, the remaining activity at 10 µM [10] was 96%, the remaining activity at 10 µM [11] was 98% and the remaining activity at 10 µM [12] was 83%. For the same compound, the remaining activity at 10 µM [13] was 108%, the remaining activity at 10 µM [14] was 102% and the remaining activity at 10 µM [15] was 112%. For the same compound, the remaining activity at 10 µM [16] was 109%, the remaining activity at 10 µM [17] was 100% and the remaining activity at 10 µM [18] was 91%. It also gave a remaining activity at 10 µM [19] of 102%, a remaining activity at 10 µM [20] of 89% and a remaining activity at 10 µM [21] of 103%. For the same compound, the remaining activity at 10 µM [22] was 95%, the remaining activity at 10 µM [23] was 94% and the remaining activity at 10 µM [24] was 92%. The remaining activity at 10 µM [25] was 90%, the remaining activity at 10 µM [26] was 90% and the remaining activity at 10 µM [27] was 94%. It also gave a remaining activity at 10 µM [28] of 87%, a remaining activity at 10 µM [29] of 81% and a remaining activity at 10 µM [30] of 79%. It also gave a remaining activity at 10 µM [31] of 100%, a remaining activity at 10 µM [32] of 93% and a remaining activity at 10 µM [33] of 68%. The remaining activity at 10 µM [34] was 89% and the remaining activity at 10 µM [35] was 94%.
